Tests used:
velvetleaf [1] = assay: Test B pre-/postemergence herbicide test; assay type: in vivo, Abutilon theophrasti; details: for Velvetleaf plant response rating: postemergence
Outline: (§1)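 Response was scored visually 13 to 15 days after treatment against untreated greenhouse controls, 0 meaning no effect and 100 complete control. Formulations (solvent mixture plus surfactant) went onto soil after planting, onto foliage of 1- to 4-leaf plants, and onto 2-leaf plants in a flooded paddy set including rice and barnyardgrass.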

barnyardgrass [2] = assay: Test B pre-/postemergence herbicide test; assay type: in vivo, Echinochloa crus-galli; details: for Barnyardgrass plant response rating: postemergence
Outline: (§2)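 Formulation: non-phytotoxic solvent mix with surfactant. Timing: preemergence on seed and postemergence on 2–18 cm plants, applied concurrently. Readout after 13–15 d greenhouse: visual 0–100 control rating against controls.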

wild oat = assay: Test B postemergence herbicide test; assay type: in vivo, Avena fatua; details: postemergence
Outline: (§3)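 Postemergence plants were sprayed with formulated test chemicals at 2 to 18 cm height (1- to 4-leaf stage); paddy species were grown to the 2-leaf stage. After 13 to 15 days in a greenhouse, injury was rated visually against untreated controls on a 0–100 scale (0 = no effect, 100 = complete control).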

redroot pigweed = assay: Test A pre-/postemergence herbicide test; assay type: in vivo, Amaranthus retroflexus
Outline: (§4)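 Seeds sown in sandy loam received a preemergence directed soil spray of compound in non-phytotoxic solvent with surfactant; postemergence plants (2–10 cm, one- to two-leaf stage) were sprayed to runoff at the same time. After ~10 days in greenhouse, injury was rated visually versus untreated controls (0 = no effect, 100 = complete control).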

lambsquarters = assay: Test B pre-/postemergence herbicide test; assay type: in vivo, Chenopodium album; details: for Lambsquarters plant response rating: postemergence
Outline: as §1

large crabgrass [3] = assay: Test A pre-/postemergence herbicide test; assay type: in vivo, Digitaria sanguinalis
Outline: as §4

cocklebur = assay: Test B pre-/postemergence herbicide test; assay type: in vivo, Xanthium strumarium; details: for Cocklebur plant response rating: postemergence
Outline: as §2

Surinam grass = assay: Test B pre-/postemergence herbicide test; assay type: in vivo, Urochloa decumbens; details: for Surinam Grass plant response rating: postemergence
Outline: as §1

wheat = assay: Test B postemergence herbicide test; assay type: in vivo, Triticum aestivum; parameters: key to Wheat plant response rating: 0 = no effect, 100 = complete control; details: postemergence
Outline: as §3

velvetleaf [4] = assay: Test A pre-/postemergence herbicide test; assay type: in vivo, Abutilon theophrasti
Outline: as §4

corn = assay: Test B pre-/postemergence herbicide test; assay type: in vivo, Zea mays; details: for Corn plant response rating: postemergence
Outline: as §1

pigweed = assay: Test B pre-/postemergence herbicide test; assay type: in vivo, Amaranthus retroflexus; details: for Pigweed plant response rating: postemergence
Outline: as §1

morningglory [5] = assay: Test B pre-/postemergence herbicide test; assay type: in vivo, Ipomoea coccinea; details: for Morningglory plant response rating: postemergence
Outline: as §2

morningglory [6] = assay: Test A pre-/postemergence herbicide test; assay type: in vivo, Ipomoea spp.
Outline: as §4

barnyardgrass [7] = assay: Test B flooded paddy test; assay type: in vivo, Echinochloa crus-galli; details: 1000 g ai/ha, scale 0 to 100 (0 no effect, 100 complete control)
Outline: (§5)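 Scale 0–100: zero equals no visible effect, 100 complete control, judged by eye relative to controls. Timing: 13 to 15 days in greenhouse post-treatment. Growth stage at spraying: two leaves (paddy) or one to four leaves, 2–18 cm (postemergence).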

rice = assay: Test B flooded paddy test; assay type: in vivo, Oryza sativa; details: 1000 g ai/ha, scale 0 to 100 (0 no effect, 100 complete control)
Outline: as §3

giant foxtail [8] = assay: Test B pre-/postemergence herbicide test; assay type: in vivo, Setaria faberi; details: for Foxtail, Giant plant response rating: postemergence
Outline: as §1

barnyardgrass [9] = assay: Test A pre-/postemergence herbicide test; assay type: in vivo, Echinochloa crus-galli
Outline: as §4

blackgrass = assay: Test B postemergence herbicide test; assay type: in vivo, Alopecurus myosuroides; details: postemergence
Outline: as §5

large crabgrass [10] = assay: Test B pre-/postemergence herbicide test; assay type: in vivo, Digitaria sanguinalis; details: for Crabgrass, Large plant response rating: postemergence
Outline: as §1

giant foxtail [11] = assay: Test A pre-/postemergence herbicide test; assay type: in vivo, Setaria faberi
Outline: as §4

[12] = test system: small flower umbrella sedge; assay: Test B flooded paddy test; assay type: in vivo, Cyperus difformis; details: 1000 g ai/ha, scale 0 to 100 (0 no effect, 100 complete control)
Outline: as §5

ducksalad = assay: Test B flooded paddy test; assay type: in vivo, Heteranthera limosa; details: 1000 g ai/ha, scale 0 to 100 (0 no effect, 100 complete control)
Outline: as §5

[13] = 125 g ai/ha, visual rating, scale 0 (no effect) to 100 (complete control)
[14] = 500 g ai/ha, visual rating, 0 = no effect, 100 = complete control, preemergence
[15] = 500 g ai/ha, scale 0 to 100, 0 is no effect, 100 is complete control
[16] = 125 g ai/ha, 0 = no effect, 100 = complete control, preemergence
[17] = Postemergence, 125 g ai/ha, 0 to 100 scale, 0 no effect, 100 complete control
[18] = Postemergence, 500 g ai/ha, 0 to 100 scale, 0 no effect, 100 complete control
[19] = preemergence, 125 g ai/ha, visual injury, 0 to 100 scale (0 no effect, 100 complete control)
[20] = preemergence, 500 g ai/ha, visual injury, 0 to 100 scale (0 no effect, 100 complete control)

SMILES: CC(=NO)c1cccc(NC(=O)c2cc(C(C)(C)C)n[nH]2)c1 [Compound 311]
- Velvetleaf plant response rating (velvetleaf [1]; [13]): 0
- Plant response rating, Velvetleaf (velvetleaf [1]; [14]): 0
- Velvetleaf plant response rating (velvetleaf [1]; [15]): 0
- Barnyardgrass plant response rating (0 to 100 scale) (barnyardgrass [2]; [16]): 0
- Barnyardgrass plant response rating (barnyardgrass [2]; [13]): 0
- Plant response rating, Barnyardgrass (barnyardgrass [2]; [14]): 0
- Barnyardgrass plant response rating (barnyardgrass [2]; [15]): 0
- Oat, Wild plant response rating (wild oat; [13]): 0
- Oat, Wild plant response rating (wild oat; [15]): 0
- Pigweed plant response rating (redroot pigweed; [17]): 0
- Pigweed plant response rating (redroot pigweed; [18]): 0
- Pigweed plant response rating (redroot pigweed; [19]): 0
- Pigweed plant response rating (redroot pigweed; [20]): 0
- Lambsquarters plant response rating (0 to 100 scale) (lambsquarters; [16]): 0
- Lambsquarters plant response rating (lambsquarters; [13]): 0
- Plant response rating, Lambsquarters (lambsquarters; [14]): 0
- Lambsquarters plant response rating (lambsquarters; [15]): 0
- Crabgrass, Large plant response rating (large crabgrass [3]; [17]): 0
- Crabgrass, Large plant response rating (large crabgrass [3]; [18]): 10
- Crabgrass, Large plant response rating (large crabgrass [3]; [19]): 0
- Crabgrass, Large plant response rating (large crabgrass [3]; [20]): 0
- Cocklebur plant response rating (0 to 100 scale) (cocklebur; [16]): 0
- Cocklebur plant response rating (cocklebur; [13]): 0
- Plant response rating, Cocklebur (cocklebur; [14]): 0
- Cocklebur plant response rating (cocklebur; [15]): 0
- Surinam Grass plant response rating (0 to 100 scale) (Surinam grass; [16]): 0
- Surinam Grass plant response rating (Surinam grass; [13]): 0
- Plant response rating, Surinam Grass (Surinam grass; [14]): 0
- Surinam Grass plant response rating (Surinam grass; [15]): 0
- Wheat plant response rating (wheat; [13]): 0
- Wheat plant response rating (wheat; [15]): 0
- Velvetleaf plant response rating (velvetleaf [4]; [17]): 0
- Velvetleaf plant response rating (velvetleaf [4]; [18]): 10
- Velvetleaf plant response rating (velvetleaf [4]; [19]): 0
- Velvetleaf plant response rating (velvetleaf [4]; [20]): 0
- Corn plant response rating (0 to 100 scale) (corn; [16]): 0
- Corn plant response rating (corn; [13]): 0
- Plant response rating, Corn (corn; [14]): 0
- Corn plant response rating (corn; [15]): 0
- Pigweed plant response rating (0 to 100 scale) (pigweed; [16]): 0
- Pigweed plant response rating (pigweed; [13]): 0
- Plant response rating, Pigweed (pigweed; [14]): 0
- Pigweed plant response rating (pigweed; [15]): 0
- Morningglory plant response rating (0 to 100 scale) (morningglory [5]; [16]): 0
- Morningglory plant response rating (morningglory [5]; [13]): 0
- Plant response rating, Morningglory (morningglory [5]; [14]): 0
- Morningglory plant response rating (morningglory [5]; [15]): 0
- Morningglory plant response rating (morningglory [6]; [17]): 0
- Morningglory plant response rating (morningglory [6]; [18]): 0
- Morningglory plant response rating (morningglory [6]; [19]): 0
- Morningglory plant response rating (morningglory [6]; [20]): 0
- Barnyardgrass plant response rating (barnyardgrass [7]): 50
- Rice plant response rating (rice): 60
- Foxtail, Giant plant response rating (0 to 100 scale) (giant foxtail [8]; [16]): 0
- Foxtail, Giant plant response rating (giant foxtail [8]; [13]): 0
- Plant response rating, Foxtail, Giant (giant foxtail [8]; [14]): 0
- Foxtail, Giant plant response rating (giant foxtail [8]; [15]): 0
- Barnyardgrass plant response rating (barnyardgrass [9]; [17]): 0
- Barnyardgrass plant response rating (barnyardgrass [9]; [18]): 10
- Barnyardgrass plant response rating (barnyardgrass [9]; [19]): 0
- Barnyardgrass plant response rating (barnyardgrass [9]; [20]): 0
- Blackgrass plant response rating (blackgrass; [13]): 0
- Blackgrass plant response rating (blackgrass; [15]): 0
- Crabgrass, Large plant response rating (0 to 100 scale) (large crabgrass [10]; [16]): 0
- Crabgrass, Large plant response rating (large crabgrass [10]; [13]): 0
- Plant response rating, Crabgrass, Large (large crabgrass [10]; [14]): 0
- Crabgrass, Large plant response rating (large crabgrass [10]; [15]): 0
- Foxtail, Giant plant response rating (giant foxtail [11]; [17]): 0
- Foxtail, Giant plant response rating (giant foxtail [11]; [18]): 0
- Foxtail, Giant plant response rating (giant foxtail [11]; [19]): 0
- Foxtail, Giant plant response rating (giant foxtail [11]; [20]): 0
- Sedge, Umbrella plant response rating [12]: 30
- Ducksalad plant response rating (ducksalad): 60

Source: US20060069132A1, “Azolecarboxamide herbicides” (priority 2004, published 2006)
